In brackets after ≈: the same amount, converted by molar mass. Activity calls are given as the source filed them. No cut-off for these calls is given here.
Columns and labels:
[1] = Solubility of the compound in aqueous medium; type: physicochemical; conditions: buffer
[2] = test system: Escherichia coli; assay: Antibacterial activity against Escherichia coli ATCC 25922 by agar diffusion assay; type: functional, organism-based
[3] = test system: Staphylococcus aureus; assay: Antibacterial activity against Staphylococcus aureus ATCC 25923 by agar diffusion assay; type: functional, organism-based
[4] = test system: Mycolicibacterium smegmatis; assay: Antibacterial activity against Mycobacterium smegmatis ATCC 14468 after 12 to 18 hrs by twofold dilution method; type: functional
[5] = test system: Escherichia coli; assay: Antibacterial activity against Escherichia coli ATCC 25922 after 12 to 18 hrs by twofold dilution method; type: functional
[6] = test system: Staphylococcus aureus; assay: microbe, parasite or virus in culture; type: functional; conditions: ATCC 25923
Description: (§1) Antibacterial activity against Staphylococcus aureus ATCC 25923 after 12 to 18 hrs by twofold dilution method

[7] = test system: Klebsiella pneumoniae; assay: Antibacterial activity against Klebsiella pneumoniae ATCC 13883 after 12 to 18 hrs by twofold dilution method; type: functional
[8] = test system: Staphylococcus aureus; assay: microbe, parasite or virus in culture; type: functional; conditions: ATCC 33591
Description: (§2) Antibacterial activity against methicillin-resistant Staphylococcus aureus ATCC 33591 after 12 to 18 hrs by twofold dilution method

[9] = test system: Pseudomonas aeruginosa; assay: Antibacterial activity against Pseudomonas aeruginosa ATCC 27853 after 12 to 18 hrs by twofold dilution method; type: functional
[10] = test system: Enterococcus faecalis; assay: Antibacterial activity against Enterococcus faecalis ATCC 29212 after 12 to 18 hrs by twofold dilution method; type: functional
[11] = test system: Enterococcus faecalis; assay: Antibacterial activity against vancomycin-resistant Enterococcus faecalis ATCC 51299 after 12 to 18 hrs by twofold dilution method; type: functional
[12] = test system: Mycolicibacterium smegmatis; conditions: ATCC 14468
[13] = test system: Escherichia coli; conditions: ATCC 25922
[14] = test system: Staphylococcus aureus; conditions: ATCC 25923
Description: as §1

[15] = test system: Klebsiella pneumoniae; conditions: ATCC 13883
[16] = test system: Staphylococcus aureus; conditions: ATCC 33591
Description: as §2

[17] = test system: Pseudomonas aeruginosa; conditions: ATCC 27853
[18] = test system: Enterococcus faecalis; conditions: ATCC 29212
[19] = test system: Enterococcus faecalis; conditions: ATCC 51299

Row | Compound | solubility [1] | Activity [2] | Activity [3] | MIC [4] [µg/mL] | MIC [5] [µg/mL] | MIC [6] [µg/mL] | MIC [7] [µg/mL] | MIC [8] [µg/mL] | MIC [9] [µg/mL] | MIC [10] [µg/mL] | MIC [11] [µg/mL] | also measured
1 | CCn1nnc2c1C(=O)c1ccccc1C2=O | Insoluble | inactive | inactive | – | – | – | – | – | – | – | – | –
2 | CCCCCn1n[n+](C)c2c1C(=O)c1ccccc1C2=O.[Cl-] | – | – | – | 8 | 8 | 2 | 32 | 1 | ≥ 250 | ≥ 250 | 125 | –
3 | hexadecyltrimethylammonium bromide | – | – | – | – | – | – | – | – | – | – | – | MIC [12]: 1 µg/mL; MIC [13]: 1 µg/mL; MIC [14]: 0.5 µg/mL; MIC [15]: 1 µg/mL; MIC [16]: 2 µg/mL; MIC [17]: 16 µg/mL; MIC [18]: 2 µg/mL; MIC [19]: 4 µg/mL
4 | C[n+]1nn(Cc2ccccc2)c2c1C(=O)c1ccccc1C2=O.[Cl-] | – | – | – | 8 | 8 | 2 | 8 | 0.5 | 125 | ≥ 250 | ≥ 250 | –
5 | Cn1nnc2c1C(=O)c1ccccc1C2=O | Insoluble | inactive | inactive | – | – | – | – | – | – | – | – | –
6 | CC(C)(C)OC(=O)N1CCC(n2nnc3c2C(=O)c2ccccc2C3=O)CC1 | Insoluble | inactive | inactive | – | – | – | – | – | – | – | – | –
7 | C[n+]1nn(Cc2ccccn2)c2c1C(=O)c1ccccc1C2=O.[Cl-] | – | – | – | 16 | 16 | 2 | 16 | 2 | ≥ 250 | ≥ 250 | ≥ 250 | –
8 | Cn1n[n+](C)c2c1C(=O)c1ccccc1C2=O.[Cl-] | – | – | – | 32 | 32 | 4 | 64 | 4 | 125 | ≥ 250 | 125 | –
9 | CCCCCCCCn1nnc2c1C(=O)c1ccccc1C2=O | Insoluble | inactive | inactive | – | – | – | – | – | – | – | – | –
10 | CCCCn1nnc2c1C(=O)c1ccccc1C2=O | Insoluble | inactive | inactive | – | – | – | – | – | – | – | – | –
11 | C[n+]1nn(C2CCNCC2)c2c1C(=O)c1ccccc1C2=O.[Cl-] | – | – | – | 16 | 32 | 2 | 64 | 2 | 64 | ≥ 250 | ≥ 250 | –
12 | O=C1c2ccccc2C(=O)c2c1nnn2Cc1ccccc1 | Insoluble | inactive | inactive | – | – | – | – | – | – | – | – | –
13 | CCCCCCCCCCCCn1n[n+](C)c2c1C(=O)c1ccccc1C2=O.[Cl-] | – | – | – | 1 | 2 | 0.032 | 2 | 0.25 | 16 | 4 | 4 | –
14 | CCCCCCCCn1n[n+](C)c2c1C(=O)c1ccccc1C2=O.[Cl-] | – | – | – | 1 | 8 | 0.032 | 8 | 0.5 | ≥ 250 | 125 | 125 | –
15 | NCC[C@H](O)C(=O)N[C@@H]1C[C@H](N)[C@@H](O[C@H]2O[C@H](CN)[C@@H](O)[C@H](O)[C@H]2O)[C@H](O)[C@H]1O[C@H]1O[C@H](CO)[C@@H](O)[C@H](N)[C@H]1O [AMIKACIN] | – | – | – | 0.25 (≈ 0.427 µM) | 1 (≈ 1.71 µM) | 0.5 (≈ 0.854 µM) | 1 (≈ 1.71 µM) | 16 (≈ 27.3 µM) | 0.25 (≈ 0.427 µM) | 32 (≈ 54.6 µM) | ≥ 250 | –
16 | CCCCCn1nnc2c1C(=O)c1ccccc1C2=O | Insoluble | inactive | inactive | – | – | – | – | – | – | – | – | –
17 | O=C1c2ccccc2C(=O)c2c1nnn2Cc1ccccn1 | Insoluble | inactive | inactive | – | – | – | – | – | – | – | – | –
18 | NC[C@H]1O[C@H](O[C@H]2[C@H](O)[C@@H](O[C@H]3O[C@H](CO)[C@@H](O)[C@H](N)[C@H]3O)[C@H](N)C[C@@H]2N)[C@H](O)[C@@H](O)[C@@H]1O [KANAMYCIN] | – | – | – | 1 (≈ 2.06 µM) | 2 (≈ 4.13 µM) | 1 (≈ 2.06 µM) | 0.5 (≈ 1.03 µM) | 125 (≈ 258 µM) | 125 (≈ 258 µM) | – | – | –
19 | CCCCCCCCCCCCCCCCn1nnc2c1C(=O)c1ccccc1C2=O | Insoluble | inactive | inactive | – | – | – | – | – | – | – | – | –
20 | CCCCCCCCCCCCCCCC[N+](C)(C)Cc1ccccc1.[Cl-] [CETALKONIUM CHLORIDE] | – | – | – | – | – | 2 | – | 1 | – | – | – | –
21 | CN[C@H](CC(C)C)C(=O)N[C@H]1C(=O)N[C@@H](CC(N)=O)C(=O)N[C@H]2C(=O)N[C@H]3C(=O)N[C@H](C(=O)N[C@H](C(=O)O)c4cc(O)cc(O)c4-c4cc3ccc4O)[C@H](O)c3ccc(c(Cl)c3)Oc3cc2cc(c3O[C@@H]2O[C@H](CO)[C@@H](O)[C@H](O)[C@H]2O[C@H]2C[C@](C)(N)[C@H](O)[C@H](C)O2)Oc2ccc(cc2Cl)[C@H]1O [VANCOMYCIN] | – | – | – | – | ≥ 250 | – | ≥ 250 | – | ≥ 250 | 1 (≈ 0.69 µM) | 125 (≈ 86.3 µM) | –
22 | NC[C@@H]1O[C@H](O[C@H]2[C@@H](O)[C@H](O[C@@H]3[C@@H](O)[C@H](N)C[C@H](N)[C@H]3O[C@H]3O[C@H](CN)[C@@H](O)[C@H](O)[C@H]3N)O[C@@H]2CO)[C@H](N)[C@@H](O)[C@@H]1O [FRAMYCETIN] | – | – | – | – | 4 (≈ 6.51 µM) | 1 (≈ 1.63 µM) | 2 (≈ 3.25 µM) | 125 (≈ 203 µM) | 64 (≈ 104 µM) | 16 (≈ 26 µM) | 125 (≈ 203 µM) | –
23 | CCn1n[n+](C)c2c1C(=O)c1ccccc1C2=O.[Cl-] | – | – | – | 16 | 16 | 1 | 32 | 1 | ≥ 250 | ≥ 250 | ≥ 250 | –
24 | CCCCn1n[n+](C)c2c1C(=O)c1ccccc1C2=O.[Cl-] | – | – | – | 16 | 16 | 2 | 32 | 1 | ≥ 250 | ≥ 250 | ≥ 250 | –
25 | CCCCCCCCCCCCn1nnc2c1C(=O)c1ccccc1C2=O | Insoluble | inactive | inactive | – | – | – | – | – | – | – | – | –
